The target in the assay is T1, human histamine H4 receptor (Homo sapiens, UniProt Q9H3N8).
T1 construct: expressed in transfected cells; host or cells: SK-N-MC cells or COS7 cells, transient transfection with pH4R; cell membranes
Kind of assay: Binding Assay on Recombinant Human Histamine H4 Receptor. To be noted: competition binding with 3H-histamine (5 nM; KD 5 nM), membranes of SK-N-MC or COS7 cells expressing human H4 receptor; average of results; > = highest value tested. The method in brief: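 Membranes from SK-N-MC or COS7 cells transiently transfected with H4R incubated 45 min at room temperature with ³H-histamine; nonspecific binding defined with 10,000 nM histamine. Filtration and scintillation counting. Ki from competition with 5 nM ³H-histamine, using a KD of 5 nM.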

T1 sequence (Q9H3N8 whole entry): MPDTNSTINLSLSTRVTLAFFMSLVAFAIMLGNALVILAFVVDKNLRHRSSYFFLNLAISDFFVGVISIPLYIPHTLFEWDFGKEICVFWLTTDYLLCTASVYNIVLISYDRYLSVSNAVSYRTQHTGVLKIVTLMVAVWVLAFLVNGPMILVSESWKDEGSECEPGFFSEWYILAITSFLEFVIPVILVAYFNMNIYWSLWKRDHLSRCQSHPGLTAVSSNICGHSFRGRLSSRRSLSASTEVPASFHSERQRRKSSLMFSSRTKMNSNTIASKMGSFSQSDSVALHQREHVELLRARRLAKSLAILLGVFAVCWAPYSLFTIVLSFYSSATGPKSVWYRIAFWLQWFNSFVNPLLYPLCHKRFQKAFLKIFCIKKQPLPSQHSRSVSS

What is called Ki is the equilibrium dissociation constant of an inhibitor or competing ligand from its target. For the compound `Cc1c(F)ccc2[nH]c(-c3ccc4c(c3)CCN4CCCC3CCNCC3)nc12` [Example 93, 5-Fluoro-4-methyl-2-[1-(3-piperidin-4-yl-propyl)-2,3-dihydro-1H-indol-5-yl]-1H-benzoimidazole], the inhibition constant Ki is 1100 nM.

As to `Clc1ccc2[nH]c(-c3ccc4c(c3)CCN4CCCC3CCNCC3)nc2c1` [Example 94, 5-Chloro-2-[1-(3-piperidin-4-yl-propyl)-2,3-dihydro-1H-indol-5-yl]-1H-benzoimidazole], the Ki stood at 600 nM.

For the compound `Cc1cccc2[nH]c(-c3ccc4c(c3)CCN4CCCC3CCNCC3)nc12` [Example 95, 4-Methyl-2-[1-(3-piperidin-4-yl-propyl)-2,3-dihydro-1H-indol-5-yl]-1H-benzoimidazole], the Ki was found to be 390 nM.

As to `Cc1c(F)ccc2[nH]c(-c3ccc4c(c3)CCN4CCCC3CCN(C)CC3)nc12` [Example 96, 5-Fluoro-4-methyl-2-{1-[3-(1-methyl-piperidin-4-yl)-propyl]-2,3-dihydro-1H-indol-5-yl}-1H-benzoimidazole], the Ki amounted to 103 nM.

With `CN1CCC(CCCN2CCc3cc(-c4nc5cc(Cl)ccc5[nH]4)ccc32)CC1` [Example 97, 5-Chloro-2-{1-[3-(1-methyl-piperidin-4-yl)-propyl]-2,3-dihydro-1H-indol-5-yl}-1H-benzoimidazole], the Ki was found to be 43 nM.

On to `Cc1cccc2[nH]c(-c3ccc4c(c3)CCN4CCCC3CCN(C)CC3)nc12` [Example 98, 4-Methyl-2-{1-[3-(1-methyl-piperidin-4-yl)-propyl]-2,3-dihydro-1H-indol-5-yl}-1H-benzoimidazole], for which the Ki was determined as 157 nM.

Turning to `Fc1cc(F)c2nc(-c3cc4ccn(CCCC5CCNCC5)c4cc3Cl)[nH]c2c1` [Example 99, 2-[6-Chloro-1-(3-piperidin-4-yl-propyl)-1H-indol-5-yl]-4,6-difluoro-1H-benzoimidazole], the Ki was found to be 2670 nM.

Take `Cc1ccc2[nH]c(-c3cc4ccn(CCCC5CCNCC5)c4cc3Cl)nc2c1C` [Example 100, 2-[6-Chloro-1-(3-piieridin-4-yl-propyl)-1H-indol-5-yl]-4,5-dimethyl-1H-benzoimidazole]: the Ki is 3330 nM.

In the case of `Clc1ccc2[nH]c(-c3cc4ccn(CCCC5CCNCC5)c4cc3Cl)nc2c1` [Example 101, 5-Chloro-2-[6-chloro-1-(3-piperidin-4-yl-propyl)-1H-indol-5-yl]-1H-benzoimidazole], the Ki worked out at 3330 nM.

As to `CN1CCC(CCCn2ccc3cc(-c4nc5cc(Cl)ccc5[nH]4)c(Cl)cc32)CC1` [Example 102, 5-Chloro-2-{6-chloro-1-[3-(1-methyl-piperidin-4-yl)-propyl]-1H-indol-5-yl}-1H-benzoimidazole], the Ki was over 10000 nM.

Turning to `Cc1ccc2[nH]c(-c3cc4ccn(CCCC5CCN(C)CC5)c4cc3Cl)nc2c1C` [Example 103, 2-{6-Chloro-1-[3-(1-methyl-piperidin-4-yl)-propyl]-1H-indol-5-yl}-4,5-dimethyl-1H-benzoimidazole], the Ki turned out to be 2770 nM.

As for `Cc1cc(Cl)cc2[nH]c(-c3cccc4c3ccn4CCCCC3CCNCC3)nc12` [Example 104, 6-Chloro-4-methyl-2-[1-(4-piperidin-4-yl-butyl)-1H-indol-4-yl]-1H-benzoimidazole], the Ki amounted to 2330 nM.

Turning to `CC(C)(C)c1ccc2[nH]c(-c3cccc4c3ccn4CCCCC3CCNCC3)nc2c1` [Example 105, 5-tert-Butyl-2-[1-(4-piperidin-4-yl-butyl)-1H-indol-4-yl]-1H-benzoimidazole], the inhibitory constant (Ki) came to 2660 nM.

For the compound `Cc1ccc2[nH]c(-c3cccc4c3ccn4CCCCC3CCNCC3)nc2c1C` [Example 106, 6,7-Dimethyl-2-[1-(4-piperidin-4-yl-butyl)-1H-indol-4-yl]-1H-benzoimidazole], the Ki worked out at 2640 nM.

`Cc1cccc2[nH]c(-c3ccc4ccn(CCCCC5CCNCC5)c4c3)nc12` [Example 107, 4-Methyl-2-[1-(4-piperidin-4-yl-butyl)-1H-indol-6-yl]-1H-benzoimidazole]: the Ki is over 10000 nM.

`Cc1cc(Cl)cc2[nH]c(-c3ccc4ccn(CCCCC5CCNCC5)c4c3)nc12` [Example 108]: the Ki turned out to be 2000 nM.

Consider `CC(C)(C)c1ccc2[nH]c(-c3ccc4ccn(CCCCC5CCNCC5)c4c3)nc2c1` [Example 109, 5-tert-Butyl-2-[1-(4-piperidin-4-yl-butyl)-1H-indol-6-yl]-1H-benzoimidazole], for which the Ki was 2670 nM.

As to `Fc1ccc2[nH]c(-c3cccc4c3ccn4CCCCC3CCNCC3)nc2c1F` [Example 110, 4,5-Difluoro-2-[1-(4-piperidin-4-yl-butyl)-1H-indol-4-yl]-1H-benzoimidazole], the Ki worked out at 3330 nM.

As for `Cc1cccc2[nH]c(-c3ccc4c(ncn4CCCC4CCNCC4)c3C)nc12` [Example 111, 4,4′-Dimethyl-1′-(3-piperidin-4-yl-propyl)-1H,1′H-[2,5′]bibenzoimidazolyl], the Ki came to 478 nM.

In the case of `Cc1cc(F)cc2[nH]c(-c3ccc4c(ncn4CCCC4CCNCC4)c3C)nc12` [Example 112, 6-Fluoro-4,4′-dimethyl-1′-(3-piperidin-4-yl-propyl)-1H,1′H-[2,5′]bibenzoimidazolyl], the Ki came out at 251 nM.

`Cc1c(Cl)ccc2[nH]c(-c3ccc4c(ncn4CCCC4CCNCC4)c3C)nc12` [Example 113, 5-Chloro-4,4′-dimethyl-1′-(3-piperidin-4-yl-propyl)-1H,1′H-[2,5′]bibenzoimidazolyl]: the Ki was 165 nM.

`Cc1c(F)ccc2[nH]c(-c3ccc4c(ncn4CCCC4CCNCC4)c3C)nc12` [Example 114, 5-Fluoro-4,4′-dimethyl-1′-(3-piperidin-4-yl-propyl)-1H,1′H-[2,5′]bibenzoimidazolyl]: the Ki is 205 nM.

As for `Fc1ccc2[nH]c(-c3cccc4c3ccn4CCCCC3CCNCC3)nc2c1` [Example 115, 5-Fluoro-2-[1-(4-piperidin-4-yl-butyl)-1H-indol-4-yl]-1H-benzoimidazole], the inhibition constant (Ki) was over 10000 nM.

Take `Fc1cc(F)c2nc(-c3cccc4c3ccn4CCCCC3CCNCC3)[nH]c2c1` [Example 116, 4,6-Difluoro-2-[1-(4-piperidin-4-yl-butyl)-1H-indol-4-yl]-1H-benzoimidazole]: the Ki is 3330 nM.

For `Cc1cccc2[nH]c(-c3ccc4c(c3)ncn4CCCCC3CCNCC3)nc12` [Example 117, 4-Methyl-1′-(4-piperidin-4-yl-butyl)-1H,1′H-[2.5′]bibenzoimidazolyl], the inhibition constant (Ki) is over 10000 nM.

`Cc1ccc2[nH]c(-c3ccc4c(c3)ncn4CCCCC3CCNCC3)nc2c1C` [Example 118]: the Ki is 3000 nM.

Turning to `CN1CCC(CCCCn2cnc3cc(-c4nc5cc(F)ccc5[nH]4)ccc32)CC1` [Example 120, 5-Fluoro-1′-[4-(1-methyl-piperidin-4-yl)-butyl]-1H,1′H-[2,5′]bibenzoimidazolyl], the Ki came to 3330 nM.

For the compound `Cc1ccc2[nH]c(-c3ccc4c(c3)ncn4CCCCC3CCN(C)CC3)nc2c1C` [Example 121, 4,5-Dimethyl-1′-[4-(1-methyl-piperidin-4-yl)-butyl]-1H,1′H-[2,5′]bibenzoimidazolyl], the Ki came to 3000 nM.

With `Cc1cccc2[nH]c(-c3ccc4ncn(CCCCC5CCNCC5)c4c3)nc12` [Example 122, 4-Methyl-3′-(4-piperidin-4-yl-butyl)-1H,3′H-[2,5′]bibenzoimidazolyl], the Ki came out at 1670 nM.

Turning to `Cc1ccc2[nH]c(-c3ccc4ncn(CCCCC5CCNCC5)c4c3)nc2c1C` [Example 123, 4,5-Dimethyl-3′-(4-piperidin-4-yl-butyl)-1H,3′H-[2,5′]bibenzoimidazolyl], the Ki came out at 3330 nM.

As for `Fc1ccc2[nH]c(-c3ccc4ncn(CCCCC5CCNCC5)c4c3)nc2c1` [Example 124, 5-Fluoro-3′-(4-piperidin-4-yl-butyl)-1H,3′H-[2,5′]bibenzoimidazolyl], the Ki is over 10000 nM.

`Cc1ccc2[nH]c(-c3ccc4ncn(CCCCC5CCN(C)CC5)c4c3)nc2c1C` [Example 125, 4,5-Dimethyl-3′-[4-(1-methyl-piperidin-4-yl)-butyl]-1H,3′H-[2,5′]bibenzoimidazolyl]: the Ki turned out to be 2670 nM.

Turning to `CN1CCC(CCCCn2cnc3ccc(-c4nc5cc(F)ccc5[nH]4)cc32)CC1` [Example 126, 5-Fluoro-3′-[4-(1-methyl-piperidin-4-yl)-butyl]-1H,3′H [2,5′]bibenzoimidazolyl], the Ki is over 10000 nM.

For `c1ccc2cc3[nH]c(-c4cccc5c4ccn5CCCCC4CCNCC4)nc3cc2c1` [Example 127, 2-[1-(4-Piperidin-4-yl-butyl)-1H-indol-4-yl]-1H-naphtho[2,3-d]imidazole], the Ki is 2100 nM.

For `O=C(c1ccccc1)c1ccc2[nH]c(-c3cccc4c3c(Cl)cn4CCCCC3CCNCC3)nc2c1` [Example 129, {2-[3-Chloro-1-(4-piperidin-4-yl-butyl)-1H-indol-4-yl]-1H-benzoimidazol-5-yl}-phenyl-methanone], the Ki was 2000 nM.

In the case of `FC(F)(F)c1ccc2[nH]c(-c3cccc4c3c(Cl)cn4CCCCC3CCNCC3)nc2c1` [Example 130, 2-[3-Chloro-1-(4-piperidin-4-yl-butyl)-1H-indol-4-yl]-5-trifluoromethyl-1H-benzoimidazole], the Ki is over 10000 nM.

Consider `Fc1cc2nc(-c3cccc4c3c(Cl)cn4CCCCC3CCNCC3)[nH]c2cc1F` [Example 131, 2-[3-Chloro-1-(4-piperidin-4-yl-butyl)-1H-indol-4-yl]-5,6-difluoro-1H-benzoimidazole], for which the Ki stood at 3330 nM.

In the case of `Fc1ccc2[nH]c(-c3cccc4c3c(Cl)cn4CCCCC3CCNCC3)nc2c1F` [Example 132, 2-[3-Chloro-1-(4-piperidin-4-yl-butyl)-1H-indol-4-yl]-4,5-difluoro-1H-benzoimidazole], the Ki is 3330 nM.

Consider `Cc1c(F)ccc2[nH]c(-c3cccc4c3c(Cl)cn4CCCCC3CCNCC3)nc12` [Example 133, 2-[3-Chloro-1-(4-piperidin-4-yl-butyl)-1H-indol-4-yl]-5-fluoro-4-methyl-1H-benzoimidazole], for which the Ki is over 10000 nM.

Source of the values: US8084466B2, “Bicyclic heteroaryl-substituted imidazoles as modulators of the histamine H4 receptor” (Janssen Pharmaceutica NV, priority 2007, dated 2011).
